Assay [1] concerns acute attacks of migraine. As to conditions: cited from earlier work.
Assay [2] deals with headache induced by CGRP infusion. As to conditions: control group (Petersen et al. 2005); cited from earlier work.
Assay [3] has as its system facial blood flow. As to conditions: marmoset (Doods et al. 2000); cited from earlier work.
For assay [4], the target named is recombinant human CL receptor/RAMP1 (Homo sapiens (Human), UniProt O60894+Q16602). In words: Recombinant receptor binding assay (125I-hCGRP). As to the method: Human CL receptor (Genbank accession number L76380) was subcloned into the expression vector pIREShyg2 (BD Biosciences Clontech) as a 5′NheI and 3′ PmeI fragment. Human RAMP1 (Genbank accession number AJ001014) was subcloned into the expression vector pIRESpuro2 (BD Biosciences Clontech) as a 5′NheI and 3′NotI fragment. HEK 293 cells (human embryonic kidney cells; ATCC #CRL-1573) were cultured in DMEM with 4.5 g/L glucose, 1 mM sodium pyruvate and 2 mM glutamine supplemented with 10% fetal bovine serum (FBS), 100 units/mL penicillin and 100 µg/mL streptomycin, and maintained at 37° C. and 95% humidity. Cells were subcultured by treatment with 0.25% trypsin with 0.1% EDTA in HBSS. Stable cell line generation was accomplished by co-transfecting 10 μg of DNA with 30 μg Lipofectamine 2000 (Invitrogen) in 75 cm^2 flasks. CL receptor and RAMP1 expression constructs were co-transfected in equal amounts. Twenty-four hours after transfection the cells were diluted and selective medium (growth medium+300 μg/mL hygromycin and 1 μg/mL puromycin) was added the following day. A clonal cell line was generated by single cell deposition utilizing a FACS Vantage SE (Becton Dickinson). Growth medium was adjusted to 150 μg/mL hygromycin and 0.5 μg/mL puromycin for cell propagation.
recombinant human CL receptor/RAMP1, sequence (Q16602 23-461): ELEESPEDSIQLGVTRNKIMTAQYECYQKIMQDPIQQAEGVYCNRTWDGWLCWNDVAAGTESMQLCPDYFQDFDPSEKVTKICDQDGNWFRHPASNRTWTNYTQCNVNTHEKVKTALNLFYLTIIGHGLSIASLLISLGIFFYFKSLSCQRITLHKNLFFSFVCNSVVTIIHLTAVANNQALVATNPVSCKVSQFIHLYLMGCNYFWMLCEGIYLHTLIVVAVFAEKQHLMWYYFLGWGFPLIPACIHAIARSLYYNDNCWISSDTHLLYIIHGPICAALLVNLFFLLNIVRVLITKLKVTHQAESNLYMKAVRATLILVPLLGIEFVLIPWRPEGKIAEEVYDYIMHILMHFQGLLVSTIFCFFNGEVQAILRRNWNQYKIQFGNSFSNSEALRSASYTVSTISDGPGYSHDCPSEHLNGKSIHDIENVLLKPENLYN
recombinant human CL receptor/RAMP1, sequence (O60894 27-148): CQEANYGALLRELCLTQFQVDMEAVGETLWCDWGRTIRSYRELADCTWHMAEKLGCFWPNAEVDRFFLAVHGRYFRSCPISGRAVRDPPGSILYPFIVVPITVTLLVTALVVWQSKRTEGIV
Recombinant Receptor Binding Assay:
The cell suspension was disrupted with a laboratory homogenizer and centrifuged at 48,000 g to isolate membranes. The pellets were resuspended in harvest buffer plus 250 mM sucrose and stored at −70° C. For binding assays, 20 μg of membranes were incubated in 1 mL binding buffer (10 mM HEPES, pH 7.4, 5 mM MgCl2, and 0.2% BSA) for 3 h at room temperature containing 10 pM ^125I-hCGRP (GE Healthcare) and antagonist. The assay was terminated by filtration through 96-well GFB glass fiber filter plates (PerkinElmer) that had been blocked with 0.05% polyethyleneimine. The filters were washed 3 times with ice-cold assay buffer (10 mM HEPES, pH 7.4, and 5 mM MgCl2). Scintillation fluid was added and the plates were counted on a Topcount (Packard). Non-specific binding was determined and the data analysis was carried out with the apparent dissociation constant (Ki) determined by using a non-linear least squares fitting the bound CPM data to the equation below:
[formula] Where Y is observed CPM bound, Ymax is total bound counts, Ymin is non specific bound counts, (Ymax−Ymin) is specific bound counts, % Imax is the maximum percent inhibition, % I min is the minimum percent inhibition, radiolabel is the probe, and the Kd is the apparent dissociation constant for the radioligand for the receptor as determined by hot saturation experiments.

The next assay has as its system middle meningeal artery. As to conditions: rats, prior administration (Williamson et al. 1997); cited from earlier work.
The subject of assay [5] is facial blood flow. As to conditions: rat (Escott et al. 1995); cited from earlier work.
[6] abbreviates: exemplary compounds of the invention, 10 pM 125I-hCGRP, membranes of HEK 293 cells, read-out: Ki.
Where [7] appears, read: analogues disclosed in U.S. Pat. No. 7,390,798 and US 2010/0179166, read-out: Ki (CGRP binding data).

The values below come from patent publication US9833448B2, “Piperidinone carboxamide azaindane CGRP receptor antagonists” (Merck Sharp & Dohme Corp., priority 2010, dated 2017).

Counter-ions that a name gives are not always drawn. Like-named read-outs stand apart in the source and are kept apart here. Ends that are not written are not given here.

On to `NCCCC[C@H](NC(=O)[C@@H](Cc1cc(Br)c(O)c(Br)c1)NC(=O)N1CCC(N2Cc3ccccc3NC2=O)CC1)C(=O)N1CCN(c2ccncc2)CC1` [BIBN4096BS], for which the “effectiveness in treating acute attacks of migraine” value in assay [1] (clinical trials (Olesen et al. 2004)) is on record as “effective in treating acute attacks of migraine”. For the same molecule, in assay [2], the “prevention of headache induced by CGRP infusion” value was “able to prevent headache induced by CGRP infusion”. Besides, the “effect on increase in facial blood flow” value with facial blood flow [3] is reported as “could be blocked”.

Turning to `C[C@@H]1[C@H](c2ccccc2)C[C@H](NC(=O)c2cnc3c(c2)C[C@@]2(C3)C(=O)Nc3ncccc32)C(=O)N1CC(F)(F)F` [Example 1, (6S)—N-[(3S,5S,6R)-6-Methyl-2-oxo-5-phenyl-1-(2,2,2-trifluoroethyl)piperidin-3-yl]-2′-oxo-1′,2′,5,7-tetrahydrospiro[cyclopenta[b]pyridine-6,3′-pyrrolo[2,3-b]pyridine]-3-carboxamide], in assay [4] (setting [6]), the Ki (in general, a dissociation constant, usually derived from enzyme kinetics or from competition with a known ligand) worked out at 0.067 nM.

On to `Cc1ccccc1[C@@H]1C[C@H](NC(=O)c2cnc3c(c2)C[C@@]2(C3)C(=O)Nc3ncccc32)C(=O)N(CC(F)(F)F)[C@@H]1C` [Example 3, (6S)—N-[(3 S,5S,6R)-6-Methyl-5-(2-methylphenyl)-2-oxo-1-(2,2,2-trifluoroethyl)piperidin-3-yl]-2′-oxo-1′,2′,5,7-tetrahydrospiro[cyclopenta[b]pyridine-6,3′-pyrrolo[2,3-b]pyridine]-3-carboxamide], for which the Ki in assay [4] (setting [6]) is 0.067 nM.

Take `C[C@@H]1[C@H](c2cc(F)cc(F)c2F)C[C@H](NC(=O)c2cnc3c(c2)C[C@@]2(C3)C(=O)Nc3ncccc32)C(=O)N1CC(F)(F)F` [Example 5, (6S)—N-[(3S,5S,6R)-6-Methyl-2-oxo-1-(2,2,2-trifluoroethyl)-5-(2,3,5-trifluorophenyl)piperidin-3-yl]-2′-oxo-1′,2′,5,7-tetrahydrospiro[cyclopenta[b]pyridine-6,3′-pyrrolo[2,3-b]pyridine]-3-carboxamide dihydrochloride]: the Ki in assay [4] (setting [6]) came to 0.017 nM.

As for `O=C(N[C@H]1C[C@@H](c2ccccc2F)CN(CC(F)(F)F)C1=O)c1cnc2c(c1)C[C@@]1(C2)C(=O)Nc2ncccc21` [Example 6], in assay [4] (setting [6]), the Ki was determined as 0.21 nM.

Regarding `CN1C[C@H](c2cccc(F)c2F)CC[C@@H](NC(=O)c2ccc3c(c2)CC2(C3)C(=O)Nc3ncccc32)C1=O` (stereo partly drawn) [Example 8 from U.S. Pat. No. 7,390,798], the Ki in assay [4] (setting [7]) is 7.4 nM.

On to `CC(C)(O)c1cnc2n1C[C@H](c1cccc(F)c1F)CC[C@H]2NC(=O)c1cc2c(cn1)CC1(C2)C(=O)Nc2ncccc21` (stereo partly drawn) [Example 8 from US 2010/0179166], for which the inhibition constant Ki in assay [4] (setting [7]) was determined as 4.3 nM.

With `O=C(N[C@@H]1CC[C@@H](c2cccc(F)c2F)CN(CC(F)(F)F)C1=O)c1ccc2c(c1)CC1(C2)C(=O)Nc2ncccc21` (stereo partly drawn) [Example 9 from U.S. Pat. No. 7,390,798], in assay [4] (setting [7]), the Ki came out at 1.9 nM.

With `CC(C)(O)CN1C[C@H](c2cccc(F)c2F)CC[C@@H](NC(=O)c2ccc3c(c2)CC2(C3)C(=O)Nc3ncccc32)C1=O` (stereo partly drawn) [Example 10 from U.S. Pat. No. 7,390,798], the Ki in assay [4] (setting [7]) is 1.7 nM.

On to `O=C(N[C@H]1C[C@@H](c2c(F)cccc2Cl)CN(CC(F)(F)F)C1=O)c1cnc2c(c1)C[C@@]1(C2)C(=O)Nc2ncccc21` [Example 11], for which, in assay [4] (setting [6]), the Ki is 0.25 nM.

In the case of `O=C(N[C@H]1C[C@@H](c2cccc(F)c2F)CN(CC2CCC2)C1=O)c1cnc2c(c1)C[C@@]1(C2)C(=O)Nc2ncccc21` [Example 17], the inhibition constant Ki in assay [4] (setting [6]) amounted to 0.055 nM.

In the case of `C[C@@H]1[C@H](c2ccccc2)C[C@H](NC(=O)c2cnc3c(c2)C[C@@]2(C3)C(=O)Nc3ncc(C#N)cc32)C(=O)N1CC(F)(F)F` [Example 30], in assay [4] (setting [6]), the inhibitory constant (Ki) worked out at 0.14 nM.

Regarding `C[C@@H]1[C@H](c2ccccc2)C[C@H](NC(=O)c2cnc3c(c2)C[C@@]2(C3)C(=O)Nc3ncncc32)C(=O)N1CC(F)(F)F` [Example 31], the inhibitory constant (Ki) in assay [4] (setting [6]) is 0.17 nM.

Take `O=C(N[C@@H]1CC[C@@H](c2cccc(F)c2F)CN(CC(F)(F)F)C1=O)N1CCC(n2c(=O)[nH]c3ncccc32)CC1` [telcagepant]: the antimigraine effectiveness entry in assay [1] (phase III clinical trials, orally bioavailable) is on record as “shown antimigraine effectiveness”.

For the molecule “CGRP (8-37) (VTHRLAGLLSRSGGVVKNNFVPTNVGSKAF; ends and bridges not checked; UniProt P06881 90-119, looked up, fragment) [a peptide CGRP receptor antagonist]”, the “effect on increase of middle meningeal artery diameter” value with middle meningeal artery was “blocked”. For the same molecule, the “effect on increased facial blood flow” value in the assay on facial blood flow [5] is “inhibited”.
